Values quoted from earlier work in patent US20230172943A1 (Mylan Specialty L.P., priority 2020, published 2023).

Conditions: orally delivered, humans

Cc1cnc(NC(=O)C2=C(O)c3ccccc3S(=O)(=O)N2C)s1 [meloxicam, 4-hydroxy-2-methyl-N-(5-methyl-2-thiazolyl)-2H-1,2-benzothiazine-3-carboxamide-1,1-dioxide]
Tmax (time to reach maximum concentration): 4 to 6 h | time to reach the therapeutic concentration that enables the onset of action: 2 to 3 h
